Results: patent publication US20250177396A1, “POLO-LIKE KINASE 4 (PLK4) INHIBITORS, PHARMACEUTICAL COMPOSITIONS, METHODS OF PREPARATION AND USES THEREOF” (Repare Therapeutics Inc., priority 2022, published 2025)

Molecular target: T1, PLK4 (Homo sapiens, UniProt O00444)
T1 construct: expressed in transfected cells; host or cells: HEK293 T cells (ATCC CRL-3216)
T1 sequence (O00444 1-970): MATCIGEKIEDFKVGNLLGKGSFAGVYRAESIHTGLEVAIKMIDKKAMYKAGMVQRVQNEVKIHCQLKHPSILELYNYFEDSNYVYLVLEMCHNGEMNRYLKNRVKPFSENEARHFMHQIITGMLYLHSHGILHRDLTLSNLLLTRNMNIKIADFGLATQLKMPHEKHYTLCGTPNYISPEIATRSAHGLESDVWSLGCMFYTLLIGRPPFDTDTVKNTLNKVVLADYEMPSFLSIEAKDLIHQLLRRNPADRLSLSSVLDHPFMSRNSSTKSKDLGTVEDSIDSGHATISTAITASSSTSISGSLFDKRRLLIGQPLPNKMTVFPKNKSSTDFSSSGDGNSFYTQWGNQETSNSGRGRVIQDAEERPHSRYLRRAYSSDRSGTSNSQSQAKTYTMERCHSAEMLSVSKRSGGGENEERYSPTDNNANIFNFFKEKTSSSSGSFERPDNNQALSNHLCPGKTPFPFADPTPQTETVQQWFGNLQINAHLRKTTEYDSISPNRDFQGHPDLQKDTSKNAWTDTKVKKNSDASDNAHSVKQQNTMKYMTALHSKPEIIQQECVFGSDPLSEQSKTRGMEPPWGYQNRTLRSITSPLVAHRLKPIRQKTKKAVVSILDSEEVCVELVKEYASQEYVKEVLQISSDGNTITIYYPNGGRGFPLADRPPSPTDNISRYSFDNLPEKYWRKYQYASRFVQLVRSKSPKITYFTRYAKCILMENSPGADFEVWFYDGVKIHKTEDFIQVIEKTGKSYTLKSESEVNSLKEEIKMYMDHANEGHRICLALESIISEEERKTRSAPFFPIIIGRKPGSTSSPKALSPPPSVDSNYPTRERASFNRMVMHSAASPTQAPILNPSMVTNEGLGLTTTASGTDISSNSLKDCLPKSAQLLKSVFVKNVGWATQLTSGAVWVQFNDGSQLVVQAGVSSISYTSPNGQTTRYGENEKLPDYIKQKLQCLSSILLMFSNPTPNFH
Assay: PLK4 NanoBRET target engagement assay
Assay type: binding
Conditions: HEK293 T cells transfected with PLK4 NanoLuc fusion vector; K-5 tracer; 2 hrs incubation
Outline: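 HEK293T cells transiently expressing PLK4-NanoLuc, plated at 17000 cells/well with K-5 tracer and compound, incubated 2 h at 37 °C/5% CO2. After substrate/inhibitor mix, 610/450 nm emission ratio ×1000 gave mBRET; IC50 from 4-parameter fit.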

Row | SMILES | IC50 [µM]
1 | Cc1cc(Nc2nc(N(C)c3c(F)cc(S(C)(=O)=O)cc3F)nc(-c3cn(C)nc3C(N)=O)c2C2CC2)n[nH]1 [Compound 251] | 0.31
2 | Cc1cc(Nc2nc(N(C)c3ccc(S(C)(=O)=O)cc3F)nc(-c3cn(C(C)C)cn3)c2C2CC2)n[nH]1 [Compound 199] | 0.017
3 | COc1c(Nc2cc(C)[nH]n2)nc(N(C)c2ccc(S(=O)(=O)CC(C)C)cc2)nc1-c1cnn(C)c1 [Compound 55] | 0.32
4 | CC#Cc1cc(Nc2nc(N(C)c3c(F)cc(S(C)(=O)=O)cc3F)nc(-c3cnn(C)c3)c2C2CC2)n[nH]1 [Compound 345] | 0.033
5 | COc1c(Nc2cc(C)[nH]n2)nc(N(CC(=O)O)c2ccc(S(C)(=O)=O)cc2F)nc1-c1cnn(C)c1 [Compound 91] | 5.4
6 | Cc1cc(Nc2nc(N(C)c3c(F)cc(S(C)(=O)=O)cc3F)nc(-c3ncn(C)c3C#N)c2C2CC2)n[nH]1 [Compound 173] | 0.36
7 | Cc1cc(Nc2nc(N(C)c3c(F)cc(N4CCS(=O)(=O)CC4)cc3F)nc(-c3cn(C)cn3)c2C2CC2)n[nH]1 [Compound 357] | 0.3
8 | COc1c(Nc2cc(C)[nH]n2)nc(N(C)c2ccc(-c3nnc(C)o3)cc2)nc1-c1cnn(C)c1 [Compound 72] | 0.82

Now those with a lower IC50, led by results:

Row | IC50 [µM] | SMILES
9 | 0.016 | Cc1cc(Nc2nc(N(C)c3ccc(S(C)(=O)=O)cc3F)nc(-c3cnn4cccnc34)c2C2CC2)n[nH]1 [Compound 108, 5-cyclopropyl-N^2-(2-fluoro-4-(methylsulfonyl)phenyl)-N^2-methyl-N^4-(5-methyl-1H-pyrazol-3-yl)-6-(pyrazolo[1,5-a]pyrimidin-3-yl)pyrimidine-2,4-diamine]
10 | 0.012 | Cc1cc(Nc2nc(N(C)c3c(F)cc(S(C)(=O)=O)cc3F)nc(N3CCC[C@@H]3C(N)=O)c2C2CC2)n[nH]1 [Compound 346]
11 | 0.008 | COCc1nc(-c2nc(N(C)c3c(F)cc(S(C)(=O)=O)cc3F)nc(Nc3cc(C)[nH]n3)c2C2CC2)cn1C [Compound 164]
12 | 0.006 | Cc1cc(Nc2nc(N(C)c3cc(F)c(S(C)(=O)=O)cc3F)nc(-c3cn(C4CC4)cn3)c2C2CC2)n[nH]1 [Compound 207]
13 | 0.004 | Cc1cc(Nc2nc(N(C)c3c(F)cc(S(C)(=O)=O)cc3F)nc(-c3cn(C4CC4)c(C)n3)c2C2CC2)n[nH]1 [Compound 241]
14 | 0.002 | Cc1cc(Nc2nc(N(C)c3c(F)cc(S(C)(=O)=O)cc3F)nc(-c3cnn(C)c3CC#N)c2C2CC2)n[nH]1 [Compound 308]
